Values quoted from earlier work, collected in publication PMC9187593 (Bioorganic chemistry, 2022).

Test system: ICR mice
Details: positive controls

SMILES | Effect on IP acid-stimulated stretching
COc1ccc2c3c1O[C@H]1C(=O)CC[C@@]4(O)[C@@H](C2)N(C)CC[C@]314 [oxycodone] | dose-dependent and significant decrease in IP acid-stimulated stretching
CC(C(=O)O)c1cccc(C(=O)c2ccccc2)c1 (centres unmarked) [ketoprofen] | dose-dependent and significant decrease in IP acid-stimulated stretching
